According to patent US12215123B2, “Cordycepin-based derivatized compound with anti-tumor effect” (NANJING TECH UNIVERSITY, priority 2022, dated 2025):

Legend:
[1] = tested on: small cell lung cancer cell line H446; experiment: MTT proliferation, small cell lung cancer cell line H446; assay type: cell-based; conditions: MTT, 72 hours, H446; read-out: IC50 (μM) of compounds in small cell lung cancer cells, H446
Protocol: (§1) The method for determining inhibitory activities of the compounds on the proliferation of tumor cells by an MTT method is as follows: a bottle of cells in a good state in an exponential growth phase is added with 0.25% trypsin digestive juice, the digestion makes adherent cells fall off, with 2 to 4×10^4 cells/mL, and a cell suspension is prepared. The cell suspension is inoculated on a 96-well plate, with 90 μL/well, and cultured in a constant-temperature CO2 incubator for 24 hours. The prepared compounds are added for testing, with 10 μL/well, and cultured for 72 hours. An MTT reagent is added into a 96-well plate, with 10 μL/well, and reacts in an incubator for 4 hours to absorb a supernatant, and then dimethyl sulfoxide is added, with 100 μL/well. After a crystal is dissolved, an absorbance of each well at a wavelength of 570 nm is measured by an enzyme-linked immunosorbent assay instrument, and a cell inhibition rate is calculated. An S curve is made with a compound concentration and a corresponding inhibition rate. Therefore, IC50 of a corresponding compound is obtained.
(§2) Anti-tumor dose-effect relationship curves of cordycepin and compounds 1, 2, 4, 5, 7, 8, 10, 12, 16, 18, 21, 23, 24, 35 and 38 in small cell lung cancer cell lines H1048, H446 and H69 were analyzed by an MTT experimental method.

[2] = tested on: small cell lung cancer cell line H69; experiment: MTT proliferation, small cell lung cancer cell line H69; assay type: cell-based; conditions: MTT, 72 hours, H69; read-out: IC50 (μM) of compounds in small cell lung cancer cells, H69
Protocol: as §1, §2

[3] = tested on: gastric cancer cell line BGC-823; experiment: MTT proliferation, gastric cancer cell line BGC-823; assay type: cell-based; conditions: MTT, 72 hours, BGC-823; read-out: IC50 (μM) in gastric cancer cells, BGC-823
Protocol: as §1
(§3) Anti-tumor dose-effect relationship curves of the cordycepin and 40 compounds prepared in gastric cancer cell lines AGS and BGC-823 were analyzed by an MTT experimental method.

MC-38 colon cancer cells = experiment: Mouse transplanted colon cancer model; assay type: in vivo, C57BL/6j nude mice; conditions: MC-38 transplanted mice, 28 days, 500 ug/time/animal intragastric (compound daily, antibody every 4 days); control 1,300 mm^3
Protocol: The feeding of the mouse model in the drug evaluation follows that: mice are fed and treated in a laminar flow cabinet, with 5 nude mice in each cage, drinking water and feedstuffs are added once every 3 days, and paddings are replaced once a week; a number of mice kept in each cage is no more than 5, the mice in separate cages are kept in groups as far as possible, and the mice should not be kept in a single cage; the animal management must conform to the relevant national standards on animal feeding management, and the behavioral needs of animals should be concerned at the same time to avoid unnecessary stress; the normal physiological and behavioral needs of animals, such as defecation, urination, constant body temperature maintenance, normal activities, posture adjustment and reproduction are met; good ventilation and dry animals are kept; the animals can access to drinking water and food at will, and supplementation, replacement and cleaning operations are easily carried out; a solid and safe environment is provided to avoid accidents of animals, such as escaping or limb trapping in a gap; the animals are avoided from being damaged by sharp edges or protrusions; and the animals are not disturbed during observation.
A mouse transplanted colon cancer model was established and a drug was evaluated. […]

[4] = tested on: small cell lung cancer cell line H1048; experiment: MTT proliferation, small cell lung cancer cell line H1048; assay type: cell-based; conditions: MTT, 72 hours, H1048; read-out: IC50 (μM) of compounds in small cell lung cancer cells, H1048
Protocol: as §1, §2

[5] = tested on: gastric cancer cell line AGS; experiment: MTT proliferation, gastric cancer cell line AGS; assay type: cell-based; conditions: MTT, 72 hours, AGS; read-out: IC50 (μM) in gastric cancer cells, AGS
Protocol: as §1, §3

Which IC50 [1] does the source give for CC(C)OC(=O)[C@H](C)NP(=O)(COCC1CC(C#N)C(n2cnc3c(N)ncnc32)O1)Oc1ccccc1 (stereo partly drawn) [Compound 16] here?
The IC50 was 19.1 µM.

And the IC50 [2]?
The IC50 was 23.3 µM.

And the IC50 [3]?
Its IC50 is 0.19 µM.

And the tumor size (MC-38 colon cancer cells)?
The tumor size was 480 mm^3.

What about the IC50 [4] of the same molecule?
The IC50 was 25.5 µM.

What about the IC50 [5] of the same molecule?
Its IC50 is 0.14 µM.
